Earlier results as cited in US20050031575A1, “Block copolymers” (priority 2001, published 2005).

Test system: solid tumours
Details: micelles ranging in size from 20-60 nm that accumulate in solid tumours

## poly(ethylene glycol-aspartate) block copolymer doxorubicin conjugates
  antitumour activity: exhibit antitumour activity
